Measured values as given in US7709471B2, “Compounds” (AstraZeneca AB, priority 2006, dated 2010).

Tested on: human colon tumour cell line HT29
Test: Cellular Assay (phosphohistone H3 Ser10 mitotic marker, HT29)
Assay type: cell-based
Details: HT-29, 24 h, HT29 cells, read-out: IC50 (cellular assay, phosphohistone H3)

IC50 [µM] | Compound
< 0.3 | CCN1CCC(NC(=O)c2cc(OC)c(Nc3ncc4c(n3)N(C3CCCC3)CC3(CC3)C(=O)N4C)cc2F)CC1 [Example 407, 4-(9′-cyclopentyl-5′-methyl-6′-oxo-5′,6′,8′,9′-tetrahydrospiro[cyclopropane-1,7′-pyrimido[5,4-b][1,4]diazepine]-2′-ylamino)-N-(1-ethyl-4-piperidyl)-2-fluoro-5-methoxy-benzamide]
< 0.3 | CN1CC[C@@H](NC(=O)c2cc(F)c(Nc3ncc4c(n3)N(C3CCCCC3)CCC(=O)N4C)cc2F)C1 [Example 414, 4-[(2-cyclohexyl-6-methyl-5-oxo-2,6,9,11-tetrazabicyclo[5.4.0]undeca-7,9,11-trien-10-yl)amino]-2,5-difluoro-N-[(3R)-1-methylpyrrolidin-3-yl]benzamide]
< 0.3 | COc1cc(C(=O)NC2CCC(N(C)C)CC2)c(F)cc1Nc1ncc2c(n1)N(C1CCCC1)CC(C)(C)C(=O)N2C (stereo not shown) [Example 372, 4-[(2-cyclopentyl-4,4,6-trimethyl-5-oxo-2,6,9,11-tetrazabicyclo[5.4.0]undeca-7,9,11-trien-10-yl)amino]-N-(4-dimethylaminocyclohexyl)-2-fluoro-5-methoxy-benzamide]
< 0.3 | CN1CCC(NC(=O)c2ccc(Nc3ncc4c(n3)N(C3CCCC3)CC3(CC3)C(=O)N4C)c3c2OCO3)CC1 [Example 408, 7-(9′-cyclopentyl-5′-methyl-6′-oxo-5′,6′,8′,9′-tetrahydrospiro[cyclopropane-1,7′-pyrimido[5,4-b][1,4]diazepine]-2′-ylamino)-N-(1-methyl-4-piperidyl)benzo[1,3]dioxole-4-carboxamide]
< 0.3 | CN1CC[C@@H](NC(=O)c2cc(F)c(Nc3ncc4c(n3)N(C3CCCC3)CCC(=O)N4C)cc2F)C1 [Example 334, 4-[(2-cyclopentyl-6-methyl-5-oxo-2,6,9,11-tetrazabicyclo[5.4.0]undeca-7,9,11-trien-10-yl)amino]-2,5-difluoro-N-[(3R)-1-methylpyrrolidin-3-yl]benzamide]
< 0.3 | CN1C(=O)C2(CC2)CN(C2CCCC2)c2nc(Nc3cc(F)c(C(=O)NCCN4CCCC4)cc3F)ncc21 [Example 397, 4-(9′-cyclopentyl-5′-methyl-6′-oxo-5′,6′,8′,9′-tetrahydrospiro[cyclopropane-1,7′-pyrimido[5,4-b][1,4]diazepine]-2′-ylamino)-2,5-difluoro-N-(2-pyrrolidin-1-ylethyl)benzamide]
< 0.3 | COc1cc(C(=O)NC2CCN(C)CC2)ccc1Nc1ncc2c(n1)N(C1CCCC1)CC1(CCCC1)C(=O)N2C [Example 409, 4-(9′-cyclopentyl-5′-methyl-6′-oxo-5′,6′,8′,9′-tetrahydrospiro[cyclopentane-1,7′-pyrimido[5,4-b][1,4]diazepine]-2′-ylamino)-3-methoxy-N-(1-methylpiperidin-4-yl)benzamide]
< 0.3 | CN1CCC(NC(=O)c2ccc(Nc3ncc4c(n3)N(C3CCCC3)CCC(=O)N4C)c3c2OCO3)CC1 [Example 341, 7-[(2-cyclopentyl-6-methyl-5-oxo-2,6,9,11-tetrazabicyclo[5.4.0]undeca-7,9,11-trien-10-yl)amino]-N-(1-methyl-4-piperidyl)benzo[1,3]dioxole-4-carboxamide]
< 0.3 | COc1cc(C(=O)NC2CCN(C)C3CCCCC23)ccc1Nc1ncc2c(n1)N(C1CCCC1)CCC(=O)N2C (single isomer, unassigned) [Example 342, 4-[(2-cyclopentyl-6-methyl-5-oxo-2,6,9,11-tetrazabicyclo[5.4.0]undeca-7,9,11-trien-10-yl)amino]-3-methoxy-N-(1-methyl-3,4,4a,5,6,7,8,8a-octahydro-2H-quinolin-4-yl)benzamide]
< 1 | CCOc1cc(C(=O)N[C@@H]2CCN(C)C2)ccc1Nc1ncc2c(n1)N(C(C)C)CC(C)(C)C(=O)N2C [Example 293, 3-ethoxy-N-[(3R)-1-methylpyrrolidin-3-yl]-4-[(4,4,6-trimethyl-5-oxo-2-propan-2-yl-2,6,9,11-tetrazabicyclo[5.4.0]undeca-7,9,11-trien-10-yl)amino]benzamide]
< 0.3 | COc1cc(C(=O)N[C@@H]2CCN(C)C2)ccc1Nc1ncc2c(n1)N(C(C)C)CC(C)(C)C(=O)N2C [Example 299, 3-methoxy-N-[(3R)-1-methylpyrrolidin-3-yl]-4-[(4,4,6-trimethyl-5-oxo-2-propan-2-yl-2,6,9,11-tetrazabicyclo[5.4.0]undeca-7,9,11-trien-10-yl)amino]benzamide]
< 0.3 | CN1CCC(NC(=O)c2cc(F)c(Nc3ncc4c(n3)N(C3CCCC3)CC3(CC3)C(=O)N4C)cc2F)CC1 [Example 396, 4-(9′-cyclopentyl-5′-methyl-6′-oxo-5′,6′,8′,9′-tetrahydrospiro[cyclopropane-1,7′-pyrimido[5,4-b][1,4]diazepine]-2′-ylamino)-2,5-difluoro-N-(1-methyl-4-piperidyl)benzamide]
< 0.3 | CN1CCC(NC(=O)c2ccc(Nc3ncc4c(n3)N(C3CCCCC3)CC3(CC3)C(=O)N4C)c(F)c2)CC1 [Example 446, 4-(9′-cyclohexyl-5′-methyl-6′-oxo-5′,6′,8′,9′-tetrahydrospiro[cyclopropane-1,7′-pyrimido[5,4-b][1,4]diazepine]-2′-ylamino)-3-fluoro-N-(1-methyl-4-piperidyl)benzamide]
< 0.3 | COc1cc(C(=O)NCC(C)(C)CN(C)C)ccc1Nc1ncc2c(n1)N(C1CCCC1)CC(C)(C)C(=O)N2C [Example 351, 4-[(2-cyclopentyl-4,4,6-trimethyl-5-oxo-2,6,9,11-tetrazabicyclo[5.4.0]undeca-7,9,11-trien-10-yl)amino]-N-(3-dimethylamino-2,2-dimethyl-propyl)-3-methoxy-benzamide]
< 0.3 | COc1cc(C(=O)NCC(C)(C)CN(C)C)ccc1Nc1ncc2c(n1)N(C(C)C)CC1(CC1)C(=O)N2C [Example 313, N-(3-(dimethylamino)-2,2-dimethylpropyl)-4-(9′-isopropyl-5′-methyl-6′-oxo-5′,6′,8′,9′-tetrahydrospiro[cyclopropane-1,7′-pyrimido[5,4-b][1,4]diazepine]-2′-ylamino)-3-methoxybenzamide]
< 30 | C#CCN1CCC(=O)N(C)c2cnc(Nc3ccc(C(=O)NC4CCN(C)CC4)cc3OC)nc21 [Example 271, 3-methoxy-4-[(6-methyl-5-oxo-2-prop-2-ynyl-2,6,9,11-tetrazabicyclo[5.4.0]undeca-7,9,11-trien-10-yl)amino]-N-(1-methyl-4-piperidyl)benzamide]
< 0.3 | COc1cc(C(=O)NC2CCC(N(C)C)CC2)c(Cl)cc1Nc1ncc2c(n1)N(C1CCCC1)CCC(=O)N2C (stereo not shown) [Example 338, 2-chloro-4-[(2-cyclopentyl-6-methyl-5-oxo-2,6,9,11-tetrazabicyclo[5.4.0]undeca-7,9,11-trien-10-yl)amino]-N-(4-dimethylaminocyclohexyl)-5-methoxy-benzamide]
< 0.3 | CCN1CC[C@@H](NC(=O)c2ccc(Nc3ncc4c(n3)N(C3CCCC3)CC(C)(C)C(=O)N4C)c(OC)c2)C1 [Example 369, 4-[(2-cyclopentyl-4,4,6-trimethyl-5-oxo-2,6,9,11-tetrazabicyclo[5.4.0]undeca-7,9,11-trien-10-yl)amino]-N-[(3R)-1-ethylpyrrolidin-3-yl]-3-methoxy-benzamide]
< 0.3 | COc1cc(C(=O)NCCN2CCCC2)ccc1Nc1ncc2c(n1)N(C(C)C)CC1(CC1)C(=O)N2C [Example 312, 4-(9′-isopropyl-5′-methyl-6′-oxo-5′,6′,8′,9′-tetrahydrospiro[cyclopropane-1,7′-pyrimido[5,4-b][1,4]diazepine]-2′-ylamino)-3-methoxy-N-(2-(pyrrolidin-1-yl)ethyl)benzamide]
< 0.3 | COc1cc(C(=O)N[C@@H]2CCN(C)C2)c(F)cc1Nc1ncc2c(n1)N(C(C)C)CC(C)(C)C(=O)N2C [Example 292, 2-fluoro-5-methoxy-N-[(3R)-1-methylpyrrolidin-3-yl]-4-[(4,4,6-trimethyl-5-oxo-2-propan-2-yl-2,6,9,11-tetrazabicyclo[5.4.0]undeca-7,9,11-trien-10-yl)amino]benzamide]
< 0.3 | COc1cc(C(=O)N[C@@H]2CCN(C)C2)c(F)cc1Nc1ncc2c(n1)N(C1CCCC1)CC1(CC1)C(=O)N2C [Example 399, 4-(9′-cyclopentyl-5′-methyl-6′-oxo-5′,6′,8′,9′-tetrahydrospiro[cyclopropane-1,7′-pyrimido[5,4-b][1,4]diazepine]-2′-ylamino)-2-fluoro-5-methoxy-N-[(3R)-1-methylpyrrolidin-3-yl]benzamide]
< 0.3 | CC(C)N1CC(C)(C)C(=O)N(C)c2cnc(Nc3cc(F)c(C(=O)NC4CCC(N(C)C)CC4)cc3Cl)nc21 (stereo not shown) [Example 291, 5-chloro-N-(4-dimethylaminocyclohexyl)-2-fluoro-4-[(4,4,6-trimethyl-5-oxo-2-propan-2-yl-2,6,9,11-tetrazabicyclo[5.4.0]undeca-7,9,11-trien-10-yl)amino]benzamide]
< 0.3 | COc1cc(C(=O)NCCN2CCCC2)c(F)cc1Nc1ncc2c(n1)N(C1CCCC1)CCC(=O)N2C [Example 333, 4-[(2-cyclopentyl-6-methyl-5-oxo-2,6,9,11-tetrazabicyclo[5.4.0]undeca-7,9,11-trien-10-yl)amino]-2-fluoro-5-methoxy-N-(2-pyrrolidin-1-ylethyl)benzamide]
< 1 | CCN1CCC(NC(=O)c2cc(Cl)c(Nc3ncc4c(n3)N(C(C)C)CC3(CC3)C(=O)N4C)cc2F)CC1 [Example 311, 5-chloro-N-(1-ethylpiperidin-4-yl)-2-fluoro-4-(9′-isopropyl-5′-methyl-6′-oxo-5′,6′,8′,9′-tetrahydrospiro[cyclopropane-1,7′-pyrimido[5,4-b][1,4]diazepine]-2′-ylamino)benzamide]
< 0.3 | COc1cc(C(=O)NCC(C)(C)CN2CCCC2)ccc1Nc1ncc2c(n1)N(C1CCCC1)CC1(CC1)C(=O)N2C [Example 401, 4-(9′-cyclopentyl-5′-methyl-6′-oxo-5′,6′,8′,9′-tetrahydrospiro[cyclopropane-1,7′-pyrimido[5,4-b][1,4]diazepine]-2′-ylamino)-N-(2,2-dimethyl-3-pyrrolidin-1-yl-propyl)-3-methoxy-benzamide]
